This is an account of results in PubChem BioAssay AID2165 (The Scripps Research Institute Molecular Screening Center, 2009).

In this experiment the target is Tyrosine-protein kinase JAK2 (Homo sapiens) (UniProt O60674). The experiment is described as follows: JAK2V617F kinase, IRF1 reporter and Ba/F3 cytotoxicity panel, late-stage follow-up, HEL and Ba/F3 cells (AID 2165).

The structures appear in SMILES notation. Activity calls are given as the source filed them. Cut-off read from the data, not from the text of the source: active = IC50 below about 9 µM; inactive = the rest.

Chain of Tyrosine-protein kinase JAK2 (Homo sapiens) (O60674 whole entry, looked up, change not shown): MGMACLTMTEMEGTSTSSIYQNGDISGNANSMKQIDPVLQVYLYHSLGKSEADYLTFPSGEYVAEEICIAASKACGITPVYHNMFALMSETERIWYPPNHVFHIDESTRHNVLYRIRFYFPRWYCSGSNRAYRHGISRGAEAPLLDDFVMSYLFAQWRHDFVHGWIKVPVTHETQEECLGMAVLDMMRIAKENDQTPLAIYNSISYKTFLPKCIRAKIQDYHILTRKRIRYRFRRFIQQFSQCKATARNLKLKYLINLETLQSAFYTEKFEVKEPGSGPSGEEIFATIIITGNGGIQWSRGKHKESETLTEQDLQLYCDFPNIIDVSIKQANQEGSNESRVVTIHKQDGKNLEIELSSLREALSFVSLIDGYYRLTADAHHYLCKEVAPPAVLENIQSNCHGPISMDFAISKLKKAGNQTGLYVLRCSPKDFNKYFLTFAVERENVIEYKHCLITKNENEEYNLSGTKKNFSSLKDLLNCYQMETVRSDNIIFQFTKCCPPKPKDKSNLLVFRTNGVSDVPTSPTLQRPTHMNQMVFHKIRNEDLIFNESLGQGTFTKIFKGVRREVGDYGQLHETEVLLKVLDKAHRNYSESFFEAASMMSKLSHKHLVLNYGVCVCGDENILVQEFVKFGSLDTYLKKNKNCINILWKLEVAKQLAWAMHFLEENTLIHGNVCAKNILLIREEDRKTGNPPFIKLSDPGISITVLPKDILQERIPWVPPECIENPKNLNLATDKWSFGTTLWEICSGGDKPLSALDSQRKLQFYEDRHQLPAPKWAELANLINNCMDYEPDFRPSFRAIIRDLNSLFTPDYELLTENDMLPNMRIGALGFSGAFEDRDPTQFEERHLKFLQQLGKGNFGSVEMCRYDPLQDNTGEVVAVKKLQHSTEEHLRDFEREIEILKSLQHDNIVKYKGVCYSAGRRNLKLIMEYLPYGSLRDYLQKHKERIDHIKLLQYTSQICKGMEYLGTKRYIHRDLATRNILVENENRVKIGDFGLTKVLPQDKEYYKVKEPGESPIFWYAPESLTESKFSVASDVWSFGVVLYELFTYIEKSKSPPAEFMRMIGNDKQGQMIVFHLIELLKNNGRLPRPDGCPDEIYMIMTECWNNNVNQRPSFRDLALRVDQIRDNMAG

A word on the IC50: it is the concentration that gives 50% inhibition. Turning to `CCCn1c(CC)nc([N+](=O)[O-])c1S(=O)(=O)c1ccccc1`, the IC50 by setting is: (Ba/F3, irf1 reporter) 4.37 µM; (HEL, irf1 reporter) 4.36 µM.

Consider `O=C(C=C=Nc1ccccc1)C(=O)N=C=Cc1ccccc1`, for which the IC50 is, setting by setting: (Ba/F3, irf1 reporter) 1.31 µM; (HEL, irf1 reporter) 14.2 µM.

For `COc1cc2ncnc(Nc3ccc(OC(F)(F)F)cc3)c2cc1OC`, the IC50 (HEL, irf1 reporter) is 3.77 µM and the IC50 (JAK2V617F) was > 40 µM (inactive).

For the compound `COc1cccc(N(C(=O)CCl)C(C(=O)NCCc2ccccc2)c2cccs2)c1` (configuration not stated), the concentration for half-maximal inhibition (IC50) is 2.76 µM (Ba/F3, irf1 reporter) and 1.04 µM (HEL, irf1 reporter).

As to `COc1ccc(-c2cc(-c3cc(C)ccc3O)[nH]n2)cc1`, the IC50 is, setting by setting: (Ba/F3, irf1 reporter) 7.06 µM; (HEL, irf1 reporter) 1.82 µM.

As to `CCc1cccc(Nc2ncnc3cc(OCCOC)c(OCCOC)cc23)c1`, the IC50 is > 40 µM (inactive) (HEL, irf1 reporter) and > 40 µM (inactive) (JAK2V617F).

As to `Cc1cccc(OCC(=O)Nc2cccc(C)c2C)c1`, the IC50 (JAK2V617F) is > 40 µM (inactive).

For the compound `N#CC(C#N)=Cc1ccc(O)c(O)c1`, the half-maximal inhibitory concentration (IC50) is 0.24 µM (Ba/F3, irf1 reporter); > 40 µM (inactive) (HEL, irf1 reporter); > 40 µM (inactive) (JAK2V617F).

Consider `COc1ccc(Nc2ccc3c(c2)=NC2(CCCCC2)[N+]=3[O-])cc1`, for which the IC50 was 5.6 µM (Ba/F3, irf1 reporter) and 5.14 µM (HEL, irf1 reporter).

Consider `Cc1ccc(O)c(NC(=O)COc2ccc(F)cc2)c1`, for which the IC50 (JAK2V617F) is 21.8 µM.

For `Cc1ccc(C)c(Sc2ccc(NC(=O)CCl)cc2)c1`, the IC50 was 2.19 µM (Ba/F3, irf1 reporter) and 18 µM (HEL, irf1 reporter).

Turning to `CCC(C)[C@@H](NC(=O)OC(C)(C)C)c1nnc(S(=O)(=O)Cc2cccc(C)c2)o1` (some centres not stated), the IC50 is 0.24 µM (Ba/F3, irf1 reporter) and 21.7 µM (HEL, irf1 reporter).

For `Cc1nc([N+](=O)[O-])c(Br)n1CC(=O)c1ccc2ccccc2c1`, the IC50 was 5.1 µM (Ba/F3, irf1 reporter) and 21.1 µM (HEL, irf1 reporter).

Consider `c1ccc2c(c1)CSc1sccc1C2=C1CCNCC1`, for which the IC50 is, setting by setting: (Ba/F3, irf1 reporter) 5.89 µM; (HEL, irf1 reporter) > 40 µM (inactive).

Consider `COc1cc(/C=C(\C#N)C(N)=O)cc(CSc2nc3ccccc3s2)c1O`, for which the IC50 (Ba/F3, irf1 reporter) is 3.35 µM; the IC50 (HEL, irf1 reporter) was 4.15 µM; the IC50 (JAK2V617F) is 6.78 µM.

As to `N#C/C(=C\c1ccc(O)c(O)c1)C(=O)NCCCc1ccccc1`, the IC50 runs as follows: (Ba/F3, irf1 reporter) 6.03 µM; (HEL, irf1 reporter) 16.1 µM.

For `O=c1cnn([C@@H]2O[C@H](CO)[C@@H](O)[C@H]2O)c(=O)[nH]1`, the IC50 (Ba/F3, irf1 reporter) is > 40 µM (inactive) and the IC50 (HEL, irf1 reporter) was > 40 µM (inactive).

Take `CN(C)C(=S)SSC(=S)N(C)C`: the IC50 (Ba/F3, irf1 reporter) is 2.38 µM and the IC50 (HEL, irf1 reporter) is 13.5 µM.

Consider `Cc1cccc(OCC(=O)Nc2ccc(O)cc2)c1`, for which the IC50 (JAK2V617F) is > 40 µM (inactive).

With `Cc1cccc(OCC(=O)Nc2cccc(O)c2)c1`, the IC50 by setting is: (HEL, irf1 reporter) > 40 µM (inactive); (JAK2V617F) > 40 µM (inactive).

For the compound `Cc1ccc(O)c(NC(=O)COc2cc(C)c(Cl)c(C)c2)c1`, the IC50 (JAK2V617F) is > 40 µM (inactive).

Regarding `COc1ccc(OC)c(NS(=O)(=O)c2ccc(SC)cc2)c1`, the IC50 (Ba/F3, irf1 reporter) was 22.9 µM and the IC50 (HEL, irf1 reporter) was > 40 µM (inactive).

For `COC(=O)COc1cccc2c(=O)n(CC(=O)NCc3ccc(F)cc3)ccc12`, the IC50 (Ba/F3, irf1 reporter) was 16.3 µM and the IC50 (HEL, irf1 reporter) was 7.33 µM.

On to `Clc1cccc(Nc2ncnc3ccccc23)c1`, for which the IC50 reads like this: (HEL, irf1 reporter) > 40 µM (inactive); (JAK2V617F) > 40 µM (inactive).

For `Cc1ccc(O)c(NC(=O)COc2ccc(C3CCCCC3)cc2)c1`, the IC50 (JAK2V617F) is > 40 µM (inactive).

In the case of `[O-][N+]1=c2ccc(Nc3ccccc3)cc2=NC12CCCCC2`, the IC50 runs as follows: (Ba/F3, irf1 reporter) 5.15 µM; (HEL, irf1 reporter) 7.02 µM.

As to `COc1cc2ncc(-c3ccccc3)nc2cc1OC`, the IC50 runs as follows: (Ba/F3, irf1 reporter) > 40 µM (inactive); (HEL, irf1 reporter) 0.69 µM; (JAK2V617F) > 40 µM (inactive).

Turning to `N#Cc1ccccc1NC(=O)COc1ccc2c(c1)OCO2`, the IC50 by setting is: (HEL, irf1 reporter) > 40 µM (inactive); (JAK2V617F) > 40 µM (inactive).

In the case of `COc1cc2ncnc(Nc3cccc(Cl)c3)c2cc1OC`, the IC50 (HEL, irf1 reporter) was > 40 µM (inactive) and the IC50 (JAK2V617F) was > 40 µM (inactive).

In the case of `COCCOc1cc2ncnc(Nc3cccc(C#Cc4ccc(O)cc4)c3)c2cc1OCCOC`, the IC50 by setting is: (HEL, irf1 reporter) 0.0948 µM; (JAK2V617F) 2.74 µM.

Regarding `Cc1cccc(OCC(=O)Nc2cc(C)ccc2O)c1`, the IC50 (Ba/F3, irf1 reporter) is 3.94 µM and the IC50 (HEL, irf1 reporter) is > 40 µM (inactive).

In the case of `Cc1ccc(O)c(NC(=O)COc2ccccc2Cl)c1`, the IC50 (JAK2V617F) is 0.0247 µM.

Turning to `Cc1[nH]c(=O)c(C(=O)C=Cc2ccc(Cl)cc2)c2c1CCCC2`, the IC50 is, setting by setting: (Ba/F3, irf1 reporter) 1.07 µM; (HEL, irf1 reporter) 0.96 µM; (JAK2V617F) 2.64 µM.

In the case of `O=C(CCl)N(C/C=C/c1ccccc1)c1ccc2c(c1)OCCO2`, the IC50 was 0.499 µM (Ba/F3, irf1 reporter) and 12 µM (HEL, irf1 reporter).

Consider `COc1ccc(C2=Nn3c(nnc3C3CCCCC3)SC2)cc1OC`, for which the IC50 (Ba/F3, irf1 reporter) is 8.93 µM and the IC50 (HEL, irf1 reporter) was 13.3 µM.

In the case of `Cc1cc(SCC(=O)N/N=C/c2ccc(O)c(O)c2)c(C)cc1Br`, the IC50 is 2.02 µM (Ba/F3, irf1 reporter) and > 40 µM (inactive) (HEL, irf1 reporter).

Take `COc1cc(/C=C2\COC/C(=C\c3ccc(O)c(OC)c3)C2=O)ccc1O`: the IC50 is 1.99 µM (Ba/F3, irf1 reporter) and 7.86 µM (HEL, irf1 reporter).
